# Source: ChEMBL document CHEMBL1157539, “Thousands of chemical starting points for antimalarial lead identification” (Nature, 2010)
# System: Plasmodium falciparum
# Test: GSK_TCMDC: Inhibition of Plasmodium falciparum 3D7 in whole erythrocytes, using parasite LDH activity as an index of growth.
# Assay type: functional, organism-based
# Settings: Plasmodium falciparum, 3D7
row,SMILES,XC50
1,Cn1cncc1C(=O)Nc1ccc(-c2cccc(-c3nc4cc(C(F)(F)F)ccc4[nH]3)c2)cc1,858 nM
2,CS(=O)(=O)CCNCc1nc(-c2ccc3c(Nc4ccc(F)c(O)c4)ccnc3c2)cs1,820 nM
3,COc1ccc(Cl)cc1NC(=O)Nc1cc(C)nc2ccccc12,287 nM
4,CC(=O)Nc1ncc(C(=O)Nc2cccc(-c3ccc(-c4nc5cc(F)ccc5[nH]4)cc3)c2)s1,622 nM
5,COc1ccc2nccc([C@@H](O)CN3CCC(NCc4cc5c(F)ccc(F)c5[nH]4)CC3)c2c1,144 nM
6,CN(C)CCOc1ccc(NC(=O)NC(C)(C)c2nc(-c3ccc(Cl)c(O)c3)c(-c3ccncc3)[nH]2)cc1,113 nM
7,COCCn1c(C)nc2ccccc2c1=O,1460 nM
8,COc1cccc(-c2nn(C)c3sc(C(=O)NCCN(C)Cc4ccccc4)cc23)c1,814 nM
9,O=C(/C=C/c1cccc(Cl)c1)N1CCC(C(O)CN2CCC3(CC2)CN(C(=O)/C=C/c2cccc(Cl)c2)c2ccccc23)CC1 (configuration not stated),892 nM
10,CON(CCCN(C)C)C(=N)N,1080 nM
11,C[C@@H](CC1CCCCC1)OC(=O)N[C@H]1CCN(C#N)C1,870 nM
12,NC1CCCN(Cc2ccc(-c3cccc(-c4nc5ccccc5[nH]4)c3)cc2)C1 (configuration not stated),721 nM
13,N#Cc1cncc(-c2nc3c(N4CCC(Cc5ccccc5)CC4)cccc3n2CCNCc2ccccc2)c1,573 nM
14,COc1ccc2ncc(Cl)c(CCN3CC[C@@H](CNCc4cc5c(cn4)OCS5)C3)c2n1,811 nM
15,CCOc1ccc2c(=NN=Cc3cccc(Cl)c3)cc(C)[nH]c2c1,864 nM
16,COc1ccc(C2C(C(=O)Nc3ccccc3)=C(C)Nc3c(C(=O)Nc4ccccc4)cnn32)cc1 (configuration not stated),1310 nM
17,CC1(C)N=C(N)N=C(N)N1CCc1ccccc1,47.4 nM
18,CCNC(C)(C)CN(Cc1ccc(-c2ccc(C(F)(F)F)cc2)cc1)C(=O)Cn1c(CCc2cccc(F)c2F)nc(=O)c2ccccc21,813 nM
19,COc1ccc(NC(=O)c2ccc3cc4ccccc4cc3c2)cc1N1CCN(C)CC1,1030 nM
20,O=C(CC1SC(N2N=C(c3cccs3)CC2c2ccccc2)=NC1=O)Nc1ccccc1F (configuration not stated),1090 nM
21,Cc1ccccc1C1CCN(C2CCC(NC(=O)/C=C/c3cc(C(F)(F)F)ccc3F)CC2)CC1 (configuration not stated),839 nM
22,CC(=O)Nc1nc(C(=O)Nc2ccc(-c3ccc(-c4nc5cccc(C)c5[nH]4)cc3)cc2)cs1,182 nM
23,Cn1nc(-c2ccc(CNC3CCc4ccccc43)cc2)c2cnc(NCCCN3CCCC3)nc21 (configuration not stated),1110 nM
24,C[C@@H](N/C(=N\c1ccc(-c2ccccc2)cc1)Nc1ccc(C#N)cc1O)c1ccc(Br)cc1,699 nM

row,SMILES,XC50
1,O=C(/C=C/c1ccc(Cl)c(Cl)c1)NC1CCC(CN2CCC(c3c[nH]c4ccccc34)CC2)CC1 (configuration not stated),235 nM
2,Nc1ccc(-c2csc(Nc3ccncc3)n2)cc1,939 nM
3,Cc1cc(N2CCCN(C)CC2)nc(Nc2ccc(Br)cc2)n1,723 nM
4,CCC(CCON1C(N)=NC(N)=NC1(C)C)c1ccc(Cl)c(Cl)c1 (configuration not stated),3.2 nM
5,COc1ccc2nccc(N3CCC(CCNCc4cc5c(cn4)OCCO5)CC3)c2c1,874 nM
6,CN1CCN(c2ccc(-c3nc4ccc(OCc5cc(Cl)cc(Cl)c5)c(C(N)=O)c4[nH]3)cc2)CC1,657 nM
7,CCN(CCCN1CCCCC1)c1cc(C)nc(Nc2ccc(C(C)C)cc2)n1,543 nM
8,N=C(NCCCCCCCCNC(=N)Nc1ccc(Cl)cc1)Nc1ccc(Cl)cc1,590 nM
9,COc1ccc(NC(=O)[C@H](Cc2ccccc2)Nc2cc(C)nc(NCc3ccccc3C)n2)cc1,794 nM
10,O=S(=O)(Nc1cccc(CCN2CCC(N3CCCCC3)CC2)c1)c1cccc2ccccc12,937 nM
11,CCCN1CCC(c2c[nH]c3ccc(NC(=O)Nc4cccc(Cl)c4Cl)cc23)CC1,815 nM
12,N=C(N)NN=CC(=O)Nc1ccc(Cl)c(C(F)(F)F)c1,892 nM
13,Cc1cccc(/C=C/C(=O)NC2CCC(N3CCC(c4ccccc4C)CC3)CC2)c1 (configuration not stated),1110 nM
14,CC(Sc1nc(-c2ccccc2)c(-c2ccccc2)o1)C(=O)NC1CC1 (configuration not stated),843 nM
15,CCc1ccc(CN2CCC(NC(=O)c3ccc(-c4ccccc4F)s3)CC2)cc1,1490 nM
16,FC(F)(F)Oc1cccc(CNc2noc(-c3sccc3Br)n2)c1,875 nM
17,CC(C)CC1c2[nH]c3ccccc3c(=O)c2CN1C(=O)OC(C)(C)C (configuration not stated),221 nM
18,Cc1cccc2nc(-c3ccc(-c4cccc(CNC5CCN(C)CC5)c4)s3)[nH]c12,182 nM
19,COc1ccc(Nc2ncc(C#N)c(Nc3ccccc3C(N)=O)n2)cc1N1CCN(C)CC1,136 nM
20,OC(CNCCCCCCNCC(O)c1ccc(Cl)c(Cl)c1)c1ccc(Cl)c(Cl)c1 (configuration not stated),915 nM
21,c1cncc(CN2CCCN(c3ccc4c(c3)CCN(Cc3ccc(-c5ncc[nH]5)cc3)CC4)CC2)c1,747 nM
22,CS(=O)(=O)c1ccc2nc(NC(=O)c3csnn3)sc2c1,666 nM
23,O=C(Nc1ccc(OC2CCN(Cc3ccccc3)C2)c(Cl)c1)c1cccs1 (configuration not stated),388 nM
24,O=C(CCn1c2ccccc2c2ccccc21)NN=Cc1ccco1,588 nM

row,SMILES,XC50
1,O=S(=O)(c1cc2ccccc2s1)N(CCC(O)(C(F)(F)F)C(F)(F)F)Cc1cccc(O)c1,751 nM
2,COc1ccc(-c2cnc(N)c(-c3nc4cc(Br)ccc4[nH]3)c2)cc1,1560 nM
3,NC(=O)CN1CC=C(c2c[nH]c3ccc(Br)cc23)CC1,1100 nM
4,O=C(/C=C/c1ccc(Cl)c(Cl)c1)NCCCCCN1CCN(C(=O)Nc2ccc(OC(F)F)cc2)CC1,945 nM
5,O=C1Nc2ccc3ncccc3c2/C1=C/Nc1ccc(N2CCN(CCO)CC2)cc1,1270 nM
6,CCCCN1C(=N)NC(c2ccccc2)(c2ccccc2)C1=O,1030 nM
7,COc1ccc(CNCc2ccc(-c3ccc(-c4nc5cccc(C)c5[nH]4)cc3)cc2)cc1,341 nM
8,CCOc1c(CNCCCNc2cc(=O)c3ccccc3[nH]2)cc(I)cc1C(C)(C)C,703 nM
9,CCN1CCN(CCCNc2c3ccc(Cl)cc3nc3ccc(OC)cc23)CC1,149 nM
10,Cc1cccc(OCC2CCN(c3ncc(C(=O)NC4CC4)cc3Cl)CC2)c1,1330 nM
11,Nc1ccc2[nH]cc(C3CCN(CC4CCN(C(=O)/C=C/c5ccc(Cl)c(Cl)c5)CC4)CC3)c2n1,701 nM
12,N#Cc1ccc(N/C(=N\c2ccccc2Cl)NC2CCN(Cc3ccccc3)CC2)c(O)c1,300 nM
13,NCCCNc1nc(Nc2ccc(C(F)(F)F)cc2F)c2c(=O)[nH]ccc2n1,1050 nM
14,CN1CCCN(Cc2cccc(-c3cccc(NC(=O)c4cccc(C#N)c4)c3)c2)CC1,818 nM
15,Cc1cc(Nc2ccc(C)c(Cl)c2)n2nc(C(F)(F)F)nc2n1,15.8 nM
16,Cc1ccc(Cn2ncc(N3CCNCC3)c(Cl)c2=O)cc1NC(=O)Nc1ccc(-c2ccccc2)cc1,1120 nM
17,O=C(Nc1ccc2c(c1)CCC2)c1ccc(CN2CCCN(Cc3cccc(O)c3)CC2)cc1,894 nM
18,CCc1c[nH]c2c(N3CCCC3=O)cc(C(=O)N[C@@H](Cc3ccccc3)[C@H](O)CNC(C)(C)c3cccc(C(F)(F)F)c3)cc12,115 nM
19,Cc1cccc(Cl)c1S(=O)(=O)Nc1cccc(CCN2CCC(N3CCCCC3)CC2)c1,1110 nM
20,c1ccc(Oc2ccc(Nc3ccnc4cc(-c5ccc(CN6CCNCC6)o5)ccc34)cc2)nc1,243 nM
21,COc1ccc(C(=O)Nc2ccc(Cl)cc2C(=O)Nc2ccncc2)cc1,822 nM
22,COc1ccc(CNC(=O)c2cnc3c(O)cccc3c2Nc2cccc(NC(=O)c3ccc(-c4ccccc4)cc3)c2)cc1,941 nM
23,COc1cc2ncnc(Nc3ccc(OCc4ccccc4Br)c(Cl)c3)c2cc1OC,1280 nM
24,FC(F)(F)c1ccc2[nH]c(-c3ccc(-c4cccc(CNCc5cnn(-c6ccccc6)n5)c4)s3)nc2c1,329 nM
